# Reference: article PMC5928083, “Structural basis for energy transduction by respiratory alternative complex III” (Nature Communications, 2018)
# Molecular target: T1, ACIII (alternative complex III) (Rhodothermus marinus, UniProt D0MDD6)
# T1 construct: gene Rmar_0223; native multi-subunit membrane complex purified from R. marinus membranes in DDM; ActB Tat signal peptide (74 residues) absent; one further unidentified subunit; with Quinol:cytochrome c oxidoreductase pentaheme cytochrome subunit (alternative complex III subunit ActA); Quinol:cytochrome c oxidoreductase iron-sulfur protein (alternative complex III subunit ActB); Quinol:cytochrome c oxidoreductase membrane protein (alternative complex III subunit ActD); Quinol:cytochrome c oxidoreductase monoheme cytochrome subunit (alternative complex III subunit ActE); Alternative complex III subunit ActG; Hypothetical protein Rmar_1979 (ActH)
# Assay: isothermal titration calorimetry
# Type: binding
# Settings: read-out: log Ka (converted)
compound,measurement,value
"CC1=C(C)C(=O)c2ccccc2C1=O [2,3-dimethyl-1,4-naphthoquinone]",Kd,316 nM
